Laboratory results taken from patent US12441730B2, “PRMT5 inhibitors” (Merck Sharp & Dohme LLC, priority 2019, dated 2025).

Assays:
[1] = target: T1, Full-length (FL)-PRMT5-MEP50 enzyme complex (Homo sapiens, UniProt O14744); experiment: PRMT5-MEP50 Enzyme Methylation Assay (Version B); format: biochemical
T1 construct: Full-length (FL)-PRMT5-MEP50 enzyme complex (recombinant proteins from baculovirus-transfected Sf21 cells: FL-PRMT5; MW=73837 kDa and FL-MEP50; MW=38614); made in house; host or cells: baculovirus-transfected Sf21 cells
T1 sequence (O14744 whole entry): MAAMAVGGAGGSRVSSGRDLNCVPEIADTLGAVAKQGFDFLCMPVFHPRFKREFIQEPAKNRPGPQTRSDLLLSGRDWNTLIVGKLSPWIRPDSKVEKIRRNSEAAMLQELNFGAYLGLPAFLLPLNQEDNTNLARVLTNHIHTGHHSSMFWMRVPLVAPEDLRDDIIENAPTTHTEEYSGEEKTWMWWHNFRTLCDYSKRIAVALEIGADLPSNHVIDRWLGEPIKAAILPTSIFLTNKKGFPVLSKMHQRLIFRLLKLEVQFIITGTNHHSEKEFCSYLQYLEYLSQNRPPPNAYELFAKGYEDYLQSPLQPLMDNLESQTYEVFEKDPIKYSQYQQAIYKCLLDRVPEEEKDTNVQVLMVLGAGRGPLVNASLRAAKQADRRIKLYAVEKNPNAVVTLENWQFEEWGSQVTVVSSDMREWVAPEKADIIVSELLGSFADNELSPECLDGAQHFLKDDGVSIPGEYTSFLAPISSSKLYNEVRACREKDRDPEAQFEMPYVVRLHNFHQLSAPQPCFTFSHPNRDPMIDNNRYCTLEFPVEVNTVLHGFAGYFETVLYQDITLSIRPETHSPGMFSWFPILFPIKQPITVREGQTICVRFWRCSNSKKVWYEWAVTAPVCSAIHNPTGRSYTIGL
T1 sequence (Q9BQA1 whole entry partner): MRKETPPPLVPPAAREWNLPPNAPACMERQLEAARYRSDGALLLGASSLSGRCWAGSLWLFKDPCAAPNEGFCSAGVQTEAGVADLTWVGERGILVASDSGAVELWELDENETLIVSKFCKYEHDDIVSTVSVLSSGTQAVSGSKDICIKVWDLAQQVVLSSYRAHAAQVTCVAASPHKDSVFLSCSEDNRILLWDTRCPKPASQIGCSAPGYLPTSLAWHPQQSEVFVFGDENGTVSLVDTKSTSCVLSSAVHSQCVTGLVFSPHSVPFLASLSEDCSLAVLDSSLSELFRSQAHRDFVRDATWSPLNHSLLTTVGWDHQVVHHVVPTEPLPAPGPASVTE
Protocol: PRMT5-MEP50 Enzyme Methylation Assay (Version B)
PRMT5/MEP50 biochemical assay is a direct measurement of the methylation activity of the enzyme complex on a short peptide substrate derived from the N-terminus of H4 histone. Methylation experiment was performed with recombinant protein. The assessment of inhibitory effect (IC50) of small molecules was measured by the effectiveness of the compounds to inhibit this reaction.
In this assay, the potency (IC50) of each compound was determined from a twenty-point (1:2 serial dilution; top compound concentration of 100000 nM) titration curve using the following outlined procedure. To each well of a white ProxiPlus 384 well-plate, 100 nL of compound (1% DMSO in final assay volume of 10 μL) was dispensed, followed by the addition of 8 μL of 1× assay buffer (50 mM Bicine pH 8.0, 1 mM DTT, 0.004% Tween20, 0.01% BSA) containing 0.5 nM of Full-length (FL)-PRMT5-MEP50 enzyme complex (recombinant proteins from baculovirus-transfected Sf21 cells: FL-PRMT5; MW=[…] and FL-MEP50; MW=38614). Plates were sealed and placed in a 37° C. humidified chamber for 30 minutes pre-incubation with compounds. Subsequently, each reaction was initiated by the addition of 2 μL 1× assay buffer containing 75 nM biotinylated H4R3 (Me1) peptide, and 15 μM S-(5′-Adenosyl)-L-Methionine Chloride (SAM). The final reaction in each well of 10 μL consists of 0.5 nM PRMT5-MEP50, 75 nM biotinylated-peptide, and 15 μM SAM. Methylation reactions were allowed to proceed for 150 minutes in a sealed plate at 37° C. Reactions were immediately quenched by the addition of 1 μL of 10% formic acid. Plates were then frozen and shipped to SAMDI™ Tech Inc. to determine the percent conversion from […]. EC50 values were determined by non-linear regression according to models for either sigmoidal (4 parameters) or biphasic (7 parameters) dose-response curves.

[2] = tested on: symmetric dimethylation of arginine (SDMA) of PRMT5 substrates in MCF-7 cells; experiment: PRMT5 Cell Target Engagement (TE) Assay; format: cell-based; conditions: 3 days treatment, SDMA high content imaging
Summary of the method: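 MCF-7 cells treated 3 days at 37 °C with a ten-point 1:3 titration from 10000 nM. Fixed cells immunostained with anti-SDMA and Alexa488 secondary; nuclear fluorescence quantified by high-content imaging versus DMSO wells, with IC50 from a 4-parameter fit.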

[3] = target: T1, Full-length (FL)-PRMT5-MEP50 enzyme complex; experiment: PRMT5-MEP50 Enzyme Methylation Assay (Version A); format: biochemical
Summary of the method: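 Compound was pre-incubated with enzyme for 60 min, then reacted 150 min at 37° C. at final 1.0 nM PRMT5-MEP50, 15 μM SAM and 75 nM biotinylated H4R3(Me1) peptide, in 50 mM Bicine pH 8.0 with 1% DMSO. SAMDI mass-spectrometric readout of Me1→Me2 conversion. EC50 from 4- or 7-parameter regression.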

[4] = second value of 7 parameter biphasic fit, read-out: Enzyme Methylation Assay Version B (EC50 2)
[5] = single EC50 = 4 parameter single site sigmoidal fit, EC50 1 = first value of 7 parameter biphasic fit, read-out: Enzyme Methylation Assay Version B (EC50 or EC50 1)

Molecule: CCOc1cc(C(=O)N2C3CCC2COC3)ccc1C(=O)N1CCC2(Cc3ccccc3CN2)C(O)C1 (single isomer, unassigned) [Example 86, A diastereomer of {3-ethoxy-4-[(3′-hydroxy-1,4-dihydro-1′H,2H-spiro[isoquinoline-3,4′-piperidin]-1′-yl)carbonyl]phenyl}(3-oxa-8-azabicyclo[3.2.1]oct-8-yl)methanone]
- EC50 [1, 4]: 28800 nM
- EC50 [1, 5]: 82.2 nM
- EC50 [2]: 1470 nM

Molecule: CCOc1cc(C(=O)N2C3CCC2COC3)ccc1C(=O)N1CCC2(Cc3ccccc3CN2)C(O)C1 (single isomer, unassigned) [Example 87, A diastereomer of {3-ethoxy-4-[(3′-hydroxy-1,4-dihydro-1′H,2H-spiro[isoquinoline-3,4′-piperidin]-1′-yl)carbonyl]phenyl}(3-oxa-8-azabicyclo[3.2.1]oct-8-yl)methanone]
- EC50 [1, 4]: 671 nM
- EC50 [1, 5]: 3.54 nM
- EC50 [2]: 9.16 nM

Molecule: CCOc1cc(C(=O)N2C3CCC2COC3)ccc1C(=O)N1CCC2(Cc3ccccc3CN2)C(O)C1 (single isomer, unassigned) [Example 88, A diastereomer of {3-ethoxy-4-[(3′-hydroxy-1,4-dihydro-1′H,2H-spiro[isoquinoline-3,4′-piperidin]-1′-yl)carbonyl]phenyl}(3-oxa-8-azabicyclo[3.2.1]oct-8-yl)methanone]
- EC50 [1, 5]: 964 nM
- EC50 ([2]; Homo sapiens, MCF7, 72 h): 4290 nM

Molecule: CCOc1cc(C(=O)N2C3CCC2COC3)ccc1C(=O)N1CCC2(Cc3ccccc3CN2)C(O)C1 (single isomer, unassigned) [Example 89, A diastereomer of {3-ethoxy-4-[(3′-hydroxy-1,4-dihydro-1′H,2H-spiro[isoquinoline-3,4′-piperidin]-1′-yl)carbonyl]phenyl}(3-oxa-8-azabicyclo[3.2.1]oct-8-yl)methanone]
- EC50 [1, 4]: 1980 nM
- EC50 [1, 5]: 4.81 nM
- EC50 [2]: 6.88 nM

Molecule: CC(=O)N1CCC(Nc2cc(C(=O)N3CCC4(Cc5ccccc5CN4)C(O)C3)ncn2)CC1 (single isomer, unassigned) [Example 90, A diastereomer of 1-[4-({6-[(3′-hydroxy-1,4-dihydro-1′H,2H-spiro[isoquinoline-3,4′-piperidin]-1′-yl)carbonyl]-4-pyrimidinyl}amino)-1-piperidinyl]ethanone]
- EC50 [1, 5]: 206 nM
- EC50 [2]: ≥ 10000 nM

Molecule: CC(=O)N1CCC(Nc2cc(C(=O)N3CCC4(Cc5ccccc5CN4)C(O)C3)ncn2)CC1 (single isomer, unassigned) [Example 91, A diastereomer of 1-[4-({6-[(3′-hydroxy-1,4-dihydro-1′H,2H-spiro[isoquinoline-3,4′-piperidin]-1′-yl)carbonyl]-4-pyrimidinyl}amino)-1-piperidinyl]ethanone]
- EC50 [1, 4]: 513 nM
- EC50 [1, 5]: 1.65 nM
- EC50 [2]: 305 nM

Molecule: CC(=O)N1CCC(Nc2cc(C(=O)N3CCC4(Cc5ccccc5CN4)C(O)C3)ncn2)CC1 (single isomer, unassigned) [Example 92, A diastereomer of 1-[4-({6-[(3′-hydroxy-1,4-dihydro-1′H,2H-spiro[isoquinoline-3,4′-piperidin]-1′-yl)carbonyl]-4-pyrimidinyl}amino)-1-piperidinyl]ethanone]
- EC50 [1, 5]: 944 nM
- EC50 [2]: ≥ 10000 nM

Molecule: CC(=O)N1CCC(Nc2cc(C(=O)N3CCC4(Cc5ccccc5CN4)C(O)C3)ncn2)CC1 (single isomer, unassigned) [Example 93, A diastereomer of 1-[4-({6-[(3′-hydroxy-1,4-dihydro-1′H,2H-spiro[isoquinoline-3,4′-piperidin]-1′-yl)carbonyl]-4-pyrimidinyl}amino)-1-piperidinyl]ethanone]
- EC50 [1, 4]: 1070 nM
- EC50 [1, 5]: 3.11 nM
- EC50 [2]: 27.3 nM

Molecule: CC(=O)N1CCC(Nc2cc(C(=O)N3CC[C@]4(Cc5ccccc5CN4)[C@H](O)C3)ccn2)C(F)(F)C1 (single isomer, unassigned) [Example 96, 1—((S or R)-3,3-difluoro-4-((4-((3R,3′R)-3′-hydroxy-1,4-dihydro-2H-spiro[isoquinoline-3,4′-piperidine]-1′-carbonyl)pyridin-2-yl)amino)piperidin-1-yl)ethan-1-one]
- EC50 [1, 4]: 34300 nM
- EC50 [1, 5]: 19.7 nM
- EC50 [2]: 767 nM

Molecule: CC(=O)N1CCC(Nc2cc(C(=O)N3CC[C@]4(Cc5ccccc5CN4)[C@H](O)C3)ccn2)C(F)(F)C1 (single isomer, unassigned) [Example 97, 1—((S or R)-3,3-difluoro-4-((4-((3R,3′R)-3′-hydroxy-1,4-dihydro-2H-spiro[isoquinoline-3,4′-piperidine]-1′-carbonyl)pyridin-2-yl)amino)piperidin-1-yl)ethan-1-one]
- EC50 [1, 4]: 7410 nM
- EC50 [1, 5]: 4.54 nM
- EC50 [2]: 216 nM

Molecule: O=C(c1ccc(C(=O)N2C3CCC2COC3)cc1)N1CCC2(Cc3ccccc3CN2)C(O)C1 (single isomer, unassigned) [Example 149, (3′-hydroxy-1,4-dihydro-1′H,2H-spiro[isoquinoline-3,4′-piperidin]-1′ -yl)[4-(3-oxa-8-azabicyclo[3.2.1]oct-8-ylcarbonyl)phenyl]methanone]
- EC50 [1, 4]: ≥ 100000 nM
- EC50 [1, 5]: 298 nM
- EC50 [2]: 9840 nM

Molecule: O=C(c1ccc(C(=O)N2C3CCC2COC3)cc1)N1CCC2(Cc3ccccc3CN2)C(O)C1 (single isomer, unassigned) [Example 150, (3′-hydroxy-1,4-dihydro-1′H,2H-spiro[isoquinoline-3,4′-piperidin]-1′-yl)[4-(3-oxa-8-azabicyclo[3.2.1]oct-8-ylcarbonyl)phenyl]methanone]
- EC50 [1, 4]: 1840 nM
- EC50 [1, 5]: 5.61 nM
- EC50 [2]: 246 nM

Molecule: O=C(c1ccc(C(=O)N2C3CCC2COC3)cc1)N1CCC2(Cc3ccccc3CN2)C(O)C1 (single isomer, unassigned) [Example 151, (3′-hydroxy-1,4-dihydro-1′H,2H-spiro[isoquinoline-3,4′-piperidin]-1′-yl)[4-(3-oxa-8-azabicyclo[3.2.1]oct-8-ylcarbonyl)phenyl]methanone]
- EC50 [1, 5]: 882 nM
- EC50 [2]: 4180 nM

Molecule: O=C(c1ccc(C(=O)N2C3CCC2COC3)cc1)N1CCC2(Cc3ccccc3CN2)C(O)C1 (single isomer, unassigned) [Example 152, (3′-hydroxy-1,4-dihydro-1′H,2H-spiro[isoquinoline-3,4′-piperidin]-1′-yl)[4-(3-oxa-8-azabicyclo[3.2.1]oct-8-ylcarbonyl)phenyl]methanone]
- EC50 [1, 4]: 335 nM
- EC50 [1, 5]: 1.2 nM
- EC50 [2]: 27.7 nM

Molecule: CC(=O)N1CCC(Nc2cc(C(=O)N3CC[C@]4(Cc5ccccc5CN4)[C@H](O)C3)c(Cl)cn2)CC1 [Example 4, 11-(4-((5-chloro-4-((3R,3’R)-3′-hydroxy-1,4-dihydro-2H-spiro[isoquinoline-3,4′-piperidine]-1′-carbonyl)pyridin-2-yl)amino)piperidin-1-yl)ethan-1-one]
- EC50 [1, 4]: 1530 nM
- EC50 [1, 5]: 2.63 nM
- EC50 ([2]; Homo sapiens, MCF7, 72 h): 55.9 nM

Molecule: CC(=O)N1CCC(Nc2cc(C(=O)N3CC[C@]4(Cc5ccccc5CN4)[C@H](O)C3)c(F)cn2)CC1 [Example 5, 1-(4-((5-fluoro-4-((3R,3’R)-3′-hydroxy-1,4-dihydro-2H-spiro[isoquinoline-3,4′-piperidine]-1′-carbonyl)pyridin-2-yl)amino)piperidin-1-yl)ethan-1-one]
- EC50 [1, 4]: 1110 nM
- EC50 [1, 5]: 5.18 nM
- EC50 ([2]; Homo sapiens, MCF7, 72 h): 38.6 nM

Molecule: A diastereomer of [(3R,3′R)-3′- hydroxy-1,4-dihydro-1′H,2H- spiro[isoquinoline-3,4′-piperidin]-1′- yl][6-isopropyl-8-(1- methoxyethyl)imidazo[1,2- a]pyridin-2-yl]methanone [Example 85]
- EC50 ([3]; second value of 7 parameter biphasic fit, read-out: Enzyme Methylation Assay Version A (EC50 2)): 3060 nM
- EC50 ([3]; single EC50 = 4 parameter single site sigmoidal fit, EC50 1 = first value of 7 parameter biphasic fit, read-out: Enzyme Methylation Assay Version A (EC50 or EC50 1)): 5.6 nM
- EC50 [2]: 115 nM
